The subject of experiment [1] is deoxyribonucleoside kinases from Aedes aegypti (PZG318). In words: Nucleoside kinase activity (DE-81 filter paper assay, tritium labelled substrates) in extracts of KY895 cells transformed with PZG318. The format is biochemical. The note with it: for Phosphorylation / activation by the mosquito deoxyribonucleoside kinase (in words): extract of KY895 transformed with PZG318; for Deoxyribonucleoside kinase specific activity in extract: substrate at fixed concentration of 100 μM. The method, then: (§1) This example describes how E. coli KY895 were transformed with the plasmid obtained according to Example 1, in order to express mosquito dNK.
(§2) KY895 cells were transformed by the expression plasmid of Example 1 using standard techniques, e.g. as described by e.g. Sambrook et al. [Sambrook et al.; Molecular Cloning: A Laboratory Manual, Cold Spring Harbor Lab., Cold Spring Harbor, N.Y. 1989].
(§3) Transformed cells were grown to an OD600 nm of 0.5-0.6 in LB/Ampicillin (100 μg/ml) medium at 37° C. and protein expression was induced by addition of 100 μM IPTG. The cells were further grown for 4 h at 25° C. and subsequently harvested by centrifugation. The cell pellet was subjected to sonification in the binding buffer A (20 mM NaPO4 pH 7,3; 150 mM NaCl; 10% Glycerol; and 0.1% Triton X-100) and subjected to centrifugation at 10,000×g for 30 minutes. Cell free extract was used for enzymatic activity assays.
Nucleoside kinase activities were determined by initial velocity measurments based on four time sample by the DE-81 filter paper assay using tritium labelled substrates. The assays were performed as described by Munch-Petersen et al. [Munch-Petersen B, Knecht W, Lenz C, Søndergaard L, Piskur J: Functional expression of a multisubstrate deoxyribonucleoside kinase from Drosophila melanogaster and its C-terminal deletion mutants; J. Biol. Chem. 2000 275 6673-6679].
The protein concentration was determined according to Bradford with BSA as standard protein [Bradford M M: A rapid and sensitive method for the quantitation of microgram quantities of protein utilizing the principle of protein-dye binding; Anal. Biochem. 1976 72 248-254]. SDS-PAGE was done according to the procedure of Laemmli[Laemmil U K: Cleavage of structural proteins during the assembly of the head of bacteriophage T4; Nature 1970 227 680-685], and proteins were visualized by Coomassie staining to verify recombinant protein expression.
The natural deoxyribonucleoside and deoxyribonucleoside analogs were tested at a fixed concentration of 100 μM. The specific activity in each extract is given in mU/ml.

The test system of another experiment is Extracts of KY895 Cells. The experiment in a line: Nucleoside kinase activity (DE-81 filter paper assay) in control extracts of KY895 cells (cells only, empty vector pGEX-2T). The format is biochemical, E. coli. The note with it: extract of KY895 transformed with pGEX-2T (empty vector); substrate 100 μM; n.d. = not detectable. The procedure: as §1, §2, §3
Nucleoside kinase activities were determined by initial velocity measurments based on four time sample by the DE-81 filter paper assay using tritium labelled substrates. […]
The protein concentration was determined according to Bradford with BSA as standard protein [Bradford M M: A rapid and sensitive method for the quantitation of microgram quantities of protein utilizing the principle of protein-dye binding; Anal. Biochem. 1976 72 248-254]. […]

A further experiment deals with KY895. In words: Growth of E. coli KY895 on nucleoside analog plates, controls (cells only, empty vector pGEX-2T). The format is cell-based. As to conditions: 24 hours at 37° C. The method, then:
(§4) Deoxyribonucleoside kinases are of interest as suicide-genes to be used in gene-mediated therapy of cancer or viral infections. In this example the potential of the mosquito kinase of the invention to convert different nucleoside analogs are compared to that of the human Herpes simplex virus 1 thymidine kinase (HSV1-TK) in a bacterial test system.
(§5) The experiment was carried out essentially as described by Knecht et al. [Knecht W. Munch-Petersen B and Piskur J: identification of residues involved in the specificity and regulation of the highly efficient multisubstrate deoxyribonucleoside kinase from Drosophila melanogaster; J. Mol. Biol. […] 301 827-837]. Briefly, overnight cultures of transformed KY895 were diluted 200-fold in 10% glyercol and 2 μl drops of the dilutions were spotted on M9 minimal medium plates [Ausubel F, Brent R, Kingston R E, Moore D D, Seldman J G, Smitf J A & Struhl K (Eds.): Short protocols in molecular biology; 3rd edition (1995) pp. 1-2, Wiley, USA] supplemented with 0.2% glucose, 0.1% casamino acids, 100 μg/ml ampicillin and with or without nucleoside analogs. Growth was inspected visually after 24 hours of incubation at 37° C.
pGEX-2T is the empty vector and is available from Amersham-Pharmacia;

Experiment [2] deals with KY895 transformed with PZG318. In words: Growth of transformed E. coli KY895 on nucleoside analog plates, transformed with PZG318 (mosquito dNK kinase). The format is cell-based. The method, then: as §4, §5
For experiment [3], the system named is KY895 transformed with pGEX-2T-HSV1-TK. The experiment in a line: Growth of transformed E. coli KY895 on nucleoside analog plates, transformed with pGEX-2T-HSV1-TK. The format is cell-based. The note with it: 24 hours at 37° C. The procedure: as §4, §5

In the case of `Nc1nc2c(ncn2COCCO)c(=O)[nH]1` [ACV, acyclovir], in experiment [1], the “Phosphorylation / activation by the mosquito deoxyribonucleoside kinase (in words)” value (“Phosphorylation / activation” below) was “also activated” and the “Deoxyribonucleoside kinase specific activity in extract” value is reported as 0.3 mU/ml.

As for `Nc1nc(O)c2ncn(COC(CO)CO)c2n1` [GCV, gancyclovir], in experiment [1], the “Phosphorylation / activation” value was “also activated” and the “Deoxyribonucleoside kinase specific activity in extract” value is on record as 0.7 mU/ml.

On to `Cc1cn([C@H]2C[C@H](O)[C@@H](CO)O2)c(=O)[nH]c1=O` [Thd, thymidine], for which, in experiment [1], the “Phosphorylation / activation” value was “able to phosphorylate” and the “Deoxyribonucleoside kinase specific activity in extract” value was found to be 125 mU/ml.

For the molecule `Nc1ncnc2c1ncn2[C@H]1C[C@H](O)[C@@H](CO)O1` [dAdo, deoxyadenosine], in experiment [1], the “Phosphorylation / activation” value is on record as “able to phosphorylate” and the “Deoxyribonucleoside kinase specific activity in extract” value is reported as 364 mU/ml.

For `Nc1ccn([C@H]2C[C@H](O)[C@@H](CO)O2)c(=O)n1` [dCyt, deoxycytidine], the “Deoxyribonucleoside kinase specific activity in extract” value in the experiment on Extracts of KY895 Cells is 0.1 mU/ml. In experiment [1], the “Phosphorylation / activation” value is on record as “able to phosphorylate” and the “Deoxyribonucleoside kinase specific activity in extract” value is recorded as 124.5 mU/ml.

As to `Nc1ccn([C@@H]2O[C@H](CO)[C@@H](O)C2(F)F)c(=O)n1` [dFdC, 2′,2′-difluorodeoxycytidine], the “dFdC LD100” value with KY895 (KY895 cells only) was over 100 nM; with KY895 (KY895 transformed with pGEX-2T (empty vector)) it was over 100 nM; in experiment [2] (KY895 transformed with PZG318, M9 plates, growth inspected after 24 hours at 37° C.) it was 3.16 nM; in experiment [3], over 100 nM. The “LD100 with mosquito dNK kinase (PZG318) lower than that of HSV1-TK” value in experiment [2] (KY895 on nucleoside analog plates, PZG318 versus HSV1-TK) is given as “at least 30 fold”. Further, the “Phosphorylation / activation” value in experiment [1] is given as “much stronger than dCyt”. For the same molecule, the “Deoxyribonucleoside kinase specific activity in extract” value in experiment [1] is 228 mU/ml.

Take `Nc1nc2c(ncn2[C@H]2C[C@H](O)[C@@H](CO)O2)c(=O)[nH]1` [dGuo, deoxyguanosine]: in experiment [1], the “Phosphorylation / activation” value was “able to phosphorylate” and the “Deoxyribonucleoside kinase specific activity in extract” value is 214.7 mU/ml.

Values taken from patent US20070202120A1, “Yellow Fever Mosquito Deoxyribonucleoside Kinases And Its Use” (priority 2003, published 2007).
